Source: US20100267697A1, “ION CHANNEL MODULATORS” (Wyeth, priority 2006, published 2010)
Counter-ions that a name gives are not always drawn.

What follows are compounds tested against T1, human Cav2.2 (composed of the subunits α1, β3 and α2δ) (Homo sapiens, UniProt Q00975) (assay: FLIPR assay (TSA201 cells stably transfected with human Cav2.2 and human Kir2.3, FLUO-4 Ca2+ signal, KCl depolarization)). Settings: 70 mM KCl depolarization, average value.
T1 construct: expressed in transfected cells
T1 sequence (Q00975 whole entry): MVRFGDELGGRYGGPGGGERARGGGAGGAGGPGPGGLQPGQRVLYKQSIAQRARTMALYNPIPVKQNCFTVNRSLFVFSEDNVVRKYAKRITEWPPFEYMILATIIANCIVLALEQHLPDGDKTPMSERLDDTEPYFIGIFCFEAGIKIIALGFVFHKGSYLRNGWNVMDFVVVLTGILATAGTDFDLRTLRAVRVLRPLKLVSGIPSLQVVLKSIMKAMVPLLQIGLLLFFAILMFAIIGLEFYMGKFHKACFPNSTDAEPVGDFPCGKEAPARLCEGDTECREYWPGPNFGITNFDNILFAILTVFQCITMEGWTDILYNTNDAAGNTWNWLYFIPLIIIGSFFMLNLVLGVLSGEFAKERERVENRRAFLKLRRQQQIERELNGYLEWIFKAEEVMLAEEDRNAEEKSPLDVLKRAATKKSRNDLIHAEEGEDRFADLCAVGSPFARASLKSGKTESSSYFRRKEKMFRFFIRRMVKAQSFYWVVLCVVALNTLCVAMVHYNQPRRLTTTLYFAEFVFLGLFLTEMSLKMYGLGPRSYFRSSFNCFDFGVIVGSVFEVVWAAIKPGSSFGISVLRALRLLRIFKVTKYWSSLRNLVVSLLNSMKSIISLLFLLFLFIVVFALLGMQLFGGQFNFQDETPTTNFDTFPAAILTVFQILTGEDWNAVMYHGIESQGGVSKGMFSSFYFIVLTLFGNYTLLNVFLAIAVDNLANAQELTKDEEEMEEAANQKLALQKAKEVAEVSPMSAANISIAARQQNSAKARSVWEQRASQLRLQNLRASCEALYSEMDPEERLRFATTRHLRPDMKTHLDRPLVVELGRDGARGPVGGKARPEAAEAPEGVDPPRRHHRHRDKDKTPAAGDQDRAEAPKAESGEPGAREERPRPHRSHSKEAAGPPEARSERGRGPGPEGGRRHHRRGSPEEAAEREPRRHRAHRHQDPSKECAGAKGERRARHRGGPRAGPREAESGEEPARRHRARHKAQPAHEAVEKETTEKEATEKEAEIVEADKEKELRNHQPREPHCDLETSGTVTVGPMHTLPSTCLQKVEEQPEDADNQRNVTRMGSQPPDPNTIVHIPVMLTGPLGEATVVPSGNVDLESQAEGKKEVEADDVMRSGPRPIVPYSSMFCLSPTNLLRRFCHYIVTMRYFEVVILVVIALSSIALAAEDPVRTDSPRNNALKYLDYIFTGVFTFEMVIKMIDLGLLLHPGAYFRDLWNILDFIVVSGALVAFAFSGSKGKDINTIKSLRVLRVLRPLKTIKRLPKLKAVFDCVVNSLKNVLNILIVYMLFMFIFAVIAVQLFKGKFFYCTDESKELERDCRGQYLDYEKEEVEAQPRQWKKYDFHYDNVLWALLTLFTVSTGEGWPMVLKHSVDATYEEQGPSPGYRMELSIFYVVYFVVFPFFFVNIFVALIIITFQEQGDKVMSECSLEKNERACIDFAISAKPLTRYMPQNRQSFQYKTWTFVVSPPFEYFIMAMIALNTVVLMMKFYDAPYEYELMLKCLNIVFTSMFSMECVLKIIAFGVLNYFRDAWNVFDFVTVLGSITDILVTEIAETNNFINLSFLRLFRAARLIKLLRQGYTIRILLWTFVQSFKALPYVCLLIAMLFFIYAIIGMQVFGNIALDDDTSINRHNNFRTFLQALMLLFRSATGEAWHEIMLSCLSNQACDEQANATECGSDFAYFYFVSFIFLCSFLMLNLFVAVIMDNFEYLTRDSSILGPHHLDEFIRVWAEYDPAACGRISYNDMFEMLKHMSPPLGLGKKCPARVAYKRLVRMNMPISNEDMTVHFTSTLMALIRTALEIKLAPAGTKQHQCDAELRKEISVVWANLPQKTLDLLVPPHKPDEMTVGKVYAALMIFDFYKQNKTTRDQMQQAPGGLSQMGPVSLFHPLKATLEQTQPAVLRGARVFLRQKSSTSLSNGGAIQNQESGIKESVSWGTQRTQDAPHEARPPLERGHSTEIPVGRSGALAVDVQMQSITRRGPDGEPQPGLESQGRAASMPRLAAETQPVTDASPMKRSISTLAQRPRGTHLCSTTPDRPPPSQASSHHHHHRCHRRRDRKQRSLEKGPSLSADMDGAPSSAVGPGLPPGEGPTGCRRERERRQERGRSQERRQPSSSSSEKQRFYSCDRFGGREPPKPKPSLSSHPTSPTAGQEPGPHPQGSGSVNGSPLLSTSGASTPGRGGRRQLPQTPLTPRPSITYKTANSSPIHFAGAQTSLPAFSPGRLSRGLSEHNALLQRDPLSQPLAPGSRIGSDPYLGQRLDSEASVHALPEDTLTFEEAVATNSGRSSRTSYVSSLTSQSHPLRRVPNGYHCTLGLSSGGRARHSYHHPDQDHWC
T1 sequence (P54284 whole entry partner): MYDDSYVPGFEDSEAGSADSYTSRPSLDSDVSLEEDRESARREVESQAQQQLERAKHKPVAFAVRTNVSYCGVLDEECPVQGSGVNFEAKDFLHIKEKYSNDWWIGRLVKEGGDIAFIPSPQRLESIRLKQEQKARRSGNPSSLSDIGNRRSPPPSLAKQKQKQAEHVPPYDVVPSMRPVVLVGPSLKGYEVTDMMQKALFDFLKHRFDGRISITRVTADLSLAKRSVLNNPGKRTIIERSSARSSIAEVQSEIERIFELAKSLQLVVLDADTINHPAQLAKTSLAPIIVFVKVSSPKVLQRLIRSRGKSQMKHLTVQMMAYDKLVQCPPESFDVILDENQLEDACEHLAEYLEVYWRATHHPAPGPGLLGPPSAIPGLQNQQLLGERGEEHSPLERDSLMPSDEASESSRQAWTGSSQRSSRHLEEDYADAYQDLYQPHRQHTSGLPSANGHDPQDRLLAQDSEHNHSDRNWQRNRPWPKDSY
T1 sequence (P54289 25-946 partner limits assumed): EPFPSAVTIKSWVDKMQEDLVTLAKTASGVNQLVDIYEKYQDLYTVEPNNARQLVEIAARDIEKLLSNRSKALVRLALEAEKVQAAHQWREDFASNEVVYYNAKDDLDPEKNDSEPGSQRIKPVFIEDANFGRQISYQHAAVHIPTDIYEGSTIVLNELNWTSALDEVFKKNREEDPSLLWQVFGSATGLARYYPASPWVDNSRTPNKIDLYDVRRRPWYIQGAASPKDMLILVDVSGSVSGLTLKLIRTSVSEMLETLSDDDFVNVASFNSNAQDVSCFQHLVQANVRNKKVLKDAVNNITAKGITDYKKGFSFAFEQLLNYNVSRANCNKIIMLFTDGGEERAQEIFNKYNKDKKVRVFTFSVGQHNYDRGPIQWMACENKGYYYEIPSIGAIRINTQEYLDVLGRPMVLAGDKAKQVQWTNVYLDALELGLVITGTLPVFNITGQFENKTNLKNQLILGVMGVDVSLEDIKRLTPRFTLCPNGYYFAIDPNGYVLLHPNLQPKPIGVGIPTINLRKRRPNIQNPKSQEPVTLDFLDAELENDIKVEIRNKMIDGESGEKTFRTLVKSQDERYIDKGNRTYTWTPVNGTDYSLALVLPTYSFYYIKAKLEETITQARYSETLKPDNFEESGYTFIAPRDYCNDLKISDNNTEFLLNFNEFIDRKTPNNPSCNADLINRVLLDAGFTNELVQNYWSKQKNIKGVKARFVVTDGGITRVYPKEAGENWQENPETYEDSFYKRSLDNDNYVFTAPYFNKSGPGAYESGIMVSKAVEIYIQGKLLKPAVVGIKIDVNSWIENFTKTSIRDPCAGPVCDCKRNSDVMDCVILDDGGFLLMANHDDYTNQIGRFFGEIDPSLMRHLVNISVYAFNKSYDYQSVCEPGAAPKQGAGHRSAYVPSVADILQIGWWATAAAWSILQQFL
T1 sequence (P54289 947-1103 partner limits assumed): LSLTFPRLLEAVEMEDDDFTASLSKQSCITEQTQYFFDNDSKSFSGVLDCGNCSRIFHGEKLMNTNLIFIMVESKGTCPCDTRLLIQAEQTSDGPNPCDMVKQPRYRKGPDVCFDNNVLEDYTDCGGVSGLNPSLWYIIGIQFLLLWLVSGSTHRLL
Assay type: cell-based
Protocol: TSA201 cells stably transfected with human Cav2.2 (composed of the subunits α1, β3 and α2δ) and human Kir2.3 to enhance the FLIPR Ca^2+ signal were used. These cells were plated on 384-well collagen-coated plates (BD Bioscience, Franklin Lakes, N.J.) at a density of 2×10^4 cells/well one day prior to the FLIPR assay. […] Culture media is removed and replaced with 25 μl of the FLUO-4 dye solution and incubated for one hour at room temperature. The cell plate is then placed on the FLIPR where the dye is aspirated off and replaced with 25 μl of HBSS (Invitrogen, Carlsbad, Calif.). The HBSS is then aspirated and replaced with […] of compound which is diluted in HBSS with 1% DMSO. Compounds are incubated on the cells for 15 minutes. The cells are then depolarized with 25 μl of 140 mM KCl solution (also containing 2 mM CaCl2 and 10 mM HEPES). The final concentration of KCl on the cells is 70 mM.

Compared with `CCN(CC)c1ccc(CN(C(=O)[C@@H]2CCCN2)c2ccc(F)cc2)cn1` [Compound 116, N-{[6-(diethylamino)pyridin-3-yl]methyl}-N-(4-fluroophenyl)-L-prolinamide], `CCN(CC)c1cccc(CN(C(=O)[C@@H]2CCCN2)c2ccc(Cl)cc2)n1` [Compound 119, N-(4-chlorophenyl)-N-{[6-(diethylamino)pyridin-2-yl]methyl}-L-prolinamide] is 2.9-fold lower in IC50: 34.8 µM for the first, 12.2 µM for the second. The second is the more potent here.

Compared with `CCN(c1ccc(CN(C(=O)[C@@H]2CCCN2)c2ccc(OC)cc2)cc1)C1CC1` [Compound 117, N-{4-[cyclopropyl(ethyl)amino]benzyl}-N-(4-methoxyphenyl)-L-prolinamide], `CCN(c1cccc(CN(C(=O)[C@@H]2CCCN2)c2ccc(F)cc2)c1)C1CC1` [Compound 118, N-{3-[cyclopropyl(ethyl)amino]benzyl}-N-(4-fluorophenyl)-L-prolinamide] is 2.9-fold lower in IC50: 9.7 µM for the first, 3.4 µM for the second. The second is the more potent here.

First: Cc1cc(F)ccc1N(Cc1cnc(N2CCCCC2)nc1)C(=O)[C@@H]1CCCN1 [Compound 120, N-(4-fluoro-2-methylphenyl)-N-[(2-piperidin-1-ylpyrimidin-5-yl)methyl]-L-prolinamide]
Second: Cc1ccc(N(Cc2cnc(N3CCCC3)s2)C(=O)[C@@H]2CCCN2)cc1 [Compound 121, N-(4-methylphenyl)-N-[(2-pyrrolidin-1-yl-1,3-thiazol-5-yl)methyl]-L-prolinamide]
The IC50 of the first is 1.5-fold lower: 13.7 µM for the first, 20.9 µM for the second. The first is the more potent here.

`CCN(c1nc(CN(C(=O)[C@@H]2CCCN2)c2ccc(F)cc2)cs1)C1CC1` [Compound 122, N-({2-[cyclopropyl(ethyl)amino]-1,3-thiazol-4-yl}methyl)-N-(4-fluorophenyl)-L-prolinamide] and `CCN(c1nc(CN(C(=O)[C@H]2CCCN2)c2ccc(F)cc2)cs1)C1CC1` [Compound 123, N-({2-[cyclopropyl(ethyl)amino]-1,3-thiazol-4-yl}methyl)-N-(4-fluorophenyl)-D-prolinamide] are within 1.5-fold of each other in IC50: 13.8 µM for the first, 10.2 µM for the second.

First: CCN(c1nc(CN(C(=O)[C@@H]2CCC(=O)N2)c2ccc(F)cc2)cs1)C1CC1 [Compound 124, N-({2-[cyclopropyl(ethyl)amino]-1,3-thiazol-4-yl}methyl)-N-(4-fluorophenyl)-5-oxo-L-prolinamide]
Second: CCN(c1nc(CN(C(=O)C(C)(C)C)c2ccc(F)cc2)cs1)C1CC1 [Compound 143, N-({2-[cyclopropyl(ethyl)amino]-1,3-thiazol-4-yl}methyl)-N-(4-fluorophenyl)-2,2-dimethylpropanamide]
The IC50 of the first is 5.2-fold higher: 19.7 µM for the first, 3.8 µM for the second.

`CN1CCN(c2ccc(CN(C(=O)C3CCCCC3)c3ccc(F)cc3)cn2)CC1` [Compound 125, N-(4-fluorophenyl)-N-{[6-(4-methylpiperazin-1-yl)pyridin-3-yl]methyl}cyclohexanecarboxamide] and `O=C(C1CCCCC1)N(Cc1ccc(N2CCN(c3ccccn3)CC2)nc1)c1ccc(F)cc1` [Compound 128, N-(4-fluorophenyl)-N-{[6-(4-pyridin-2-ylpiperazin-1-yl)pyridin-3-yl]methyl}cyclohexanecarboxamide] are within 1.5-fold of each other in IC50: 9.5 µM for the first, 9.1 µM for the second.

First: CN1CCN(c2ccc(CN(C(=O)NC(C)(C)C)c3ccc(F)cc3)cn2)CC1 [Compound 126, N′-(tert-butyl)-N-(4-fluorophenyl)-N-{[6-(4-methylpiperazin-1-yl)pyridin-3-yl]methyl}urea]
Second: CC(C)(C)C(=O)N(Cc1ccc(N2CCCC2)nc1)c1ccc(F)cc1 [Compound 132, N-(4-fluorophenyl)-2,2-dimethyl-N-[(6-pyrrolidin-1-ylpyridin-3-yl)methyl]propanamide]
The IC50 of the first is 3.7-fold higher: 30 µM for the first, 8.2 µM for the second. The second is the more potent here.

Compared with `CC(CC(=O)N(Cc1ccc(N(C)CCc2ccccn2)nc1)c1ccc(F)cc1)C(F)(F)F` (stereo not shown) [Compound 127], `CN(CCO)c1ccc(CN(C(=O)C(C)(C)C)c2ccc(F)cc2)cn1` [Compound 130, N-(4-fluorophenyl)-N-({6-[(2-hydroxyethyl)(methyl)amino]pyridin-3-yl}methyl)-2,2-dimethylpropanamide] is 5.7-fold higher in IC50: 2.6 µM for the first, 14.8 µM for the second. The first is the more potent here.

`CCN(CC)c1ccc(CN(C(=O)Cc2cccs2)c2ccc(F)cc2)cn1` [Compound 129] and `CCC(=O)N(CCc1cccnc1)c1ccc(CN(C(=O)C(C)(C)C)c2ccc(F)cc2)cn1` [Compound 135] are within 1.5-fold of each other in IC50: 1.5 µM for the first, 1.35 µM for the second.

First: Cc1ccc(OCCN(C)c2ccc(CN(C(=O)C(C)(C)C)c3ccc(F)cc3)cn2)nc1 [Compound 131, N-(4-fluorophenyl)-2,2-dimethyl-N-{[6-(methyl{2-[(5-methylpyridin-2-yl)oxy]ethyl}amino)pyridin-3-yl]methyl}propanamide]
Second: CCN(c1ccc(CN(C(=O)C(C)(C)C)c2ccc(F)cc2)cn1)C1CC1 [Compound 139, N-({6-[cyclopropyl(ethyl)amino]pyridin-3-yl}methyl)-N-(4-fluorophenyl)-2,2-dimethylpropanamide]
The IC50 of the first is 6.2-fold higher: 8.1 µM for the first, 1.3 µM for the second.

Going from `CCN(CC)C1CCN(c2ccc(CN(C(=O)C(C)(C)C)c3ccc(F)cc3)cn2)C1` (stereo not shown) [Compound 133, N-({6-[3-(diethylamino)pyrrolidin-1-yl]pyridin-3-yl}methyl)-N-(4-fluorophenyl)-2,2-dimethylpropanamide] to `CC1CN(c2nc(CN(C(=O)C(C)(C)C)c3ccc(F)cc3)cs2)CC(C)N1` (stereo not shown) [Compound 145, N-{[2-(3,5-dimethylpiperazin-1-yl)-1,3-thiazol-4-yl]methyl}-N-(4-fluorophenyl)-2,2-dimethylpropanamide], the IC50 rises from 11.5 µM to 18.5 µM (1.6-fold). The first is the more potent here.

`CC(C)(C)C(=O)N(Cc1csc(N2CCCCC2)n1)c1ccc(F)cc1` [Compound 134, N-(4-fluorophenyl)-2,2-dimethyl-N-[(2-piperidin-1-yl-1,3-thiazol-4-yl)methyl]propanamide] and `CC(C)(C)C(=O)N(Cc1csc(N2CCCC2)n1)c1ccc(F)cc1` [Compound 140, N-(4-fluorophenyl)-2,2-dimethyl-N-[(2-pyrrolidin-1-yl-1,3-thiazol-4-yl)methyl]propanamide] are the same in IC50: 4.4 µM for the first, 4.4 µM for the second.

First: CC(C)(C)C(=O)N(Cc1csc(N2CCOCC2)n1)c1ccc(F)cc1 [Compound 136, N-(4-fluorophenyl)-2,2-dimethyl-N-[(2-morpholin-4-yl-1,3-thiazol-4-yl)methyl]propanamide]
Second: CCC(C)(C)C(=O)N(Cc1csc(N2CCOCC2)n1)c1ccc(F)cc1 [Compound 138, N-(4-fluorophenyl)-2,2-dimethyl-N-[(2-morpholin-4-yl-1,3-thiazol-4-yl)methyl]butanamide]
The IC50 of the first is 2.6-fold lower: 5.6 µM for the first, 14.5 µM for the second.

`O=C(C1CCCCC1)N(Cc1csc(N2CCOCC2)n1)c1ccc(F)cc1` [Compound 137, N-(4-fluorophenyl)-N-[(2-morpholin-4-yl-1,3-thiazol-4-yl)methyl]cyclohexanecarboxamide] and `CC(C)(C)C(=O)N(Cc1csc(N2CCNCC2)n1)c1ccc(F)cc1` [Compound 152, N-(4-fluorophenyl)-2,2-dimethyl-N-[(2-piperazin-1-yl-1,3-thiazol-4-yl)methyl]propanamide] are within 1.5-fold of each other in IC50: 11.2 µM for the first, 8.3 µM for the second.

`CN(c1ccc(F)cc1)c1nc(CN(C(=O)C(C)(C)C)c2ccc(F)cc2)cs1` [Compound 141, N-(4-fluorophenyl)-N-({2-[(4-fluorophenyl)(methyl)amino]-1,3-thiazol-4-yl}methyl)-2,2-dimethylpropanamide] and `COc1ccc(N(C)c2nc(CN(C(=O)C(C)(C)C)c3ccc(F)cc3)cs2)cc1` [Compound 142, N-(4-fluroophenyl)-N-({2-[(4-methoxyphenyl)(methyl)amino]-1,3-thiazol-4-yl}methyl)-2,2-dimethylpropanamide] are within 1.5-fold of each other in IC50: 7.6 µM for the first, 6.8 µM for the second.

Going from `CC(C)(C)C(=O)N(Cc1csc(Br)n1)c1ccc(F)cc1` [Compound 144, N-[(2-bromo-1,3-thiazol-4-yl)methyl]-N-(4-fluorophenyl)-2,2-dimethylpropanamide] to `CN1CCN(c2nc(CN(C(=O)C(C)(C)C)c3ccc(F)cc3)cs2)CC1` [Compound 150, N-(4-fluorophenyl)-2,2-dimethyl-N-{[2-(4-methylpiperazin-1-yl)-1,3-thiazol-4-yl]methyl}propanamide], the IC50 rises from 3.2 µM to 10.6 µM (3.3-fold).

Going from `CC(C)(C)OC(=O)N1CCN(c2nc(CN(C(=O)C(C)(C)C)c3ccc(F)cc3)cs2)CC1` [Compound 146, tert-butyl 4-(4-{[(2,2-dimethylpropanoyl)(4-fluorophenyl)amino]methyl}--1,3-thiazol-2-yl)piperazine-1-carboxylate] to `CC(C)N1CCN(c2nc(CN(C(=O)C(C)(C)C)c3ccc(F)cc3)cs2)CC1` [Compound 148, N-(4-fluroophenyl)-N-{[2-(4-isopropylpiperazin-1-yl)-1,3-thiazol-4-yl]methyl}-2,2-dimethylpropanamide], the IC50 falls from 35.4 µM to 15.4 µM (2.3-fold). The second is the more potent here.

Compared with `CC(C)(C)C(=O)N(Cc1csc(N2CCN(c3ccccc3)CC2)n1)c1ccc(F)cc1` [Compound 147, N-(4-fluorophenyl)-2,2-dimethyl-N-{[2-(4-phenylpiperazin-1-yl)-1,3-thiazol-4-yl]methyl}propanamide], `CC(C)(C)C(=O)N(Cc1csc(N2CCN(c3ccccn3)CC2)n1)c1ccc(F)cc1` [Compound 149, N-(4-fluorophenyl)-2,2-dimethyl-N-{[2-(4-pyridin-2-ylpiperazin-1-yl)--1,3-thiazol-4-yl]methyl}propanamide] is 2.9-fold higher in IC50: 2.8 µM for the first, 8.1 µM for the second.

`CC(C)(C)C(=O)N(Cc1csc(N2CCN(c3ncccn3)CC2)n1)c1ccc(F)cc1` [Compound 151, N-(4-fluorophenyl)-2,2-dimethyl-N-{[2-(4-pyrimidin-2-ylpiperazin-1-yl)-1,3-thiazol-4-yl]methyl}propanamide dihydrochloride] showed an IC50 of 4 µM.
